Patent US7662854B2, “HIF hydroxylase inhibitors” (ISIS Innovation Limited, priority 2002, dated 2010)

Legend:
HIF hydroxylase = experiment: capture assay for inhibitors of HIF modification (pVHL capture); assay type: biochemical; settings: result in words; screening at 2 mM of the potential inhibitor, RCC4 cell extract, 100 μM FeCl2
Method: In vitro screening of potential inhibitors of HIF modification was performed using a capture assay. A Gal/HIF-1α/VP16 fusion protein expressing HIF-1α residues 549-582 was prepared by IVTT (see British Application No. 0118952.1) and used as a substrate in the assay. The unlabelled substrate was immunopurified on beads, washed, and aliquots incubated in the presence of RCC4 cell extract, with 100 μM FeCl2 and 2 mM of the potential inhibitor. The inhibitors were either dissolved in DMSO or Tris as indicated. Controls, where no inhibitor but the equivalent amount of DMSO or Tris was added, were also performed. After washing, the beads were assayed for their ability to interact with 35-S labelled pVHL IVTT. Hydroxylation of the fusion protein by HIF hydroxylase present in the cell extract leads to the ability to capture the labelled pVHL and the amount of labelled protein bound to the fusion protein can then be measured to determine relative HIF hydroxylase activity. FIGS. 1 to 5 show HIF hydroxylase activity in the presence of a particular inhibitor relative to that seen in the absence of the inhibitor (the DMSO/Tris control).

HIF hydroxylases = experiment: assays in which the compound replaces 2-oxoglutarate as co-substrate; assay type: biochemical; settings: compared with 2-oxoglutarate under analogous conditions
Text: Another aspect of the invention concerns analogues of 2-oxoglutarate that act as improved (relative to 2-oxoglutarate) co-substrates for the HIF hydroxylases. Such a compound is 3-fluoro 2-oxoglutarate.

| activity as modulator of HIF prolyl hydroxylase (HIF hydroxylase) | SMILES | level of HIF hydroxylation (HIF hydroxylases) |
| --- | --- | --- |
| highly active | O=C(O)CC1CC(=O)N(O)C1=O (centres unmarked) [Is52, (1-hydroxy-2,5-dioxo-pyrrolidin-3-yl) acetic acid] |  |
|  | O=C(O)CC(F)C(=O)C(=O)O (centres unmarked) [3-fluoro 2-oxoglutarate, 3-fluoro-2-oxoglutaric acid] | higher level of HIF hydroxylation |
